PubChem BioAssay (NCI)
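Cultured in 96-well plates, cells were exposed to test compound for 48 hours across five concentrations. GI50 = concentration required for 50% inhibition of growth. TGI denotes the concentration required for complete inhibition of growth.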

system: HOP-92 NSCLC; assay: NCI anticancer screen, dose series, 48 h

Work on `N#Cc1ccccc1CSc1ncnc2nc[nH]c12` yielded a GI50 of 28.6 µM.

Compared with `Cc1ccc2c3c1O[C@H]1c4[nH]c5ccccc5c4C[C@@]4(O)[C@@H](C2)N(CC2CC2)CC[C@]314`, `O=C1c2ccccc2C(=O)N1CCCCNOCCCN1C(=O)c2ccccc2C1=O` is higher in TGI: 27.5 µM for the first, over 100 µM for the second.

Work on `Nc1ccc(Cc2c(N)[nH]c(=O)[nH]c2=O)cc1` yielded a TGI of over 100 µM.

system: HCC-2998 colon; assay: NCI anticancer screen, dose series, 48 h

`CCOC(=O)Cn1c(=O)ccn(COCCO)c1=O` and `CCOC(=O)c1cc2c3ccn(Cc4ccccc4)c3c3c(C)[nH]oc3c2n1` cannot be ordered by TGI: over 100 µM for the first, over 100 µM for the second.

`C=CCCC1(CC(Sc2ccccc2)P(=O)(c2ccccc2)c2ccccc2)OCCO1` (stereo not given) and `O=C1c2ccccc2C(=O)N1CCCCNOCCCN1C(=O)c2ccccc2C1=O` cannot be ordered by TGI: over 10 µM for the first, over 100 µM for the second.

Going from `Cc1ccc2c3c1O[C@H]1c4[nH]c5ccccc5c4C[C@@]4(O)[C@@H](C2)N(CC2CC2)CC[C@]314` to `Nc1ccc(Cc2c(N)[nH]c(=O)[nH]c2=O)cc1`, the TGI rises from 12.5 µM to over 100 µM.

system: SF-268 CNS; assay: NCI anticancer screen, dose series, 48 h

`CCOC(=O)Cn1c(=O)ccn(COCCO)c1=O` and `CCOC(=O)c1cc2c3ccn(Cc4ccccc4)c3c3c(C)[nH]oc3c2n1` cannot be ordered by TGI: over 100 µM for the first, over 100 µM for the second.

`CN(C)CCCN=c1c2ccccc2n(O)c2ccccc12` and `O=C1c2ccccc2C(=O)N1CCCCNOCCCN1C(=O)c2ccccc2C1=O` cannot be ordered by TGI: over 100 µM for the first, over 100 µM for the second.

`C=CCCC1(CC(Sc2ccccc2)P(=O)(c2ccccc2)c2ccccc2)OCCO1` (stereo not given) and `Cc1ccc2c3c1O[C@H]1c4[nH]c5ccccc5c4C[C@@]4(O)[C@@H](C2)N(CC2CC2)CC[C@]314` cannot be ordered by TGI: over 10 µM for the first, 30.1 µM for the second.

Molecule `Nc1ccc(Cc2c(N)[nH]c(=O)[nH]c2=O)cc1` has a TGI of over 100 µM.

system: SF-295 CNS; assay: NCI anticancer screen, dose series, 48 h

`CN(C)CCCN=c1c2ccccc2n(O)c2ccccc12` and `CCOC(=O)c1cc2c3ccn(Cc4ccccc4)c3c3c(C)[nH]oc3c2n1` cannot be ordered by TGI: over 100 µM for the first, over 100 µM for the second.

`C=CCCC1(CC(Sc2ccccc2)P(=O)(c2ccccc2)c2ccccc2)OCCO1` (stereo not given) and `O=C1c2ccccc2C(=O)N1CCCCNOCCCN1C(=O)c2ccccc2C1=O` cannot be ordered by TGI: over 10 µM for the first, over 100 µM for the second.

First: Cc1ccc2c3c1O[C@H]1c4[nH]c5ccccc5c4C[C@@]4(O)[C@@H](C2)N(CC2CC2)CC[C@]314
Second: Nc1ccc(Cc2c(N)[nH]c(=O)[nH]c2=O)cc1
The TGI of the first is lower: 31.1 µM for the first, over 100 µM for the second.

system: BT-549 breast; assay: NCI anticancer screen, dose series, 48 h

`CCOC(=O)Cn1c(=O)ccn(COCCO)c1=O` and `CCOC(=O)c1cc2c3ccn(Cc4ccccc4)c3c3c(C)[nH]oc3c2n1` cannot be ordered by TGI: over 100 µM for the first, over 100 µM for the second.

First: CN(C)CCCN=c1c2ccccc2n(O)c2ccccc12
Second: O=C1c2ccccc2C(=O)N1CCCCNOCCCN1C(=O)c2ccccc2C1=O
The TGI of the first is lower: 63.4 µM for the first, over 100 µM for the second.

`C=CCCC1(CC(Sc2ccccc2)P(=O)(c2ccccc2)c2ccccc2)OCCO1` (stereo not given) and `Cc1ccc2c3c1O[C@H]1c4[nH]c5ccccc5c4C[C@@]4(O)[C@@H](C2)N(CC2CC2)CC[C@]314` cannot be ordered by TGI: over 10 µM for the first, 35.7 µM for the second.

Molecule `Nc1ccc(Cc2c(N)[nH]c(=O)[nH]c2=O)cc1` has a TGI of over 100 µM.

Molecule `N#Cc1ccccc1CSc1ncnc2nc[nH]c12` has a GI50 of 56.6 µM.

system: SF-539 CNS; assay: NCI anticancer screen, dose series, 48 h

`CCOC(=O)Cn1c(=O)ccn(COCCO)c1=O` and `Nc1ccc(Cc2c(N)[nH]c(=O)[nH]c2=O)cc1` cannot be ordered by TGI: over 100 µM for the first, over 100 µM for the second.

`CN(C)CCCN=c1c2ccccc2n(O)c2ccccc12` and `C=CCCC1(CC(Sc2ccccc2)P(=O)(c2ccccc2)c2ccccc2)OCCO1` (stereo not given) cannot be ordered by TGI: over 100 µM for the first, over 10 µM for the second.

`Cc1ccc2c3c1O[C@H]1c4[nH]c5ccccc5c4C[C@@]4(O)[C@@H](C2)N(CC2CC2)CC[C@]314` was tested, and the TGI was 31.6 µM.

system: MDA-N; assay: NCI anticancer screen, dose series, 48 h

`CCOC(=O)Cn1c(=O)ccn(COCCO)c1=O` and `CCOC(=O)c1cc2c3ccn(Cc4ccccc4)c3c3c(C)[nH]oc3c2n1` cannot be ordered by TGI: over 100 µM for the first, over 100 µM for the second.

`CN(C)CCCN=c1c2ccccc2n(O)c2ccccc12` and `O=C1c2ccccc2C(=O)N1CCCCNOCCCN1C(=O)c2ccccc2C1=O` cannot be ordered by TGI: over 100 µM for the first, over 100 µM for the second.

`C=CCCC1(CC(Sc2ccccc2)P(=O)(c2ccccc2)c2ccccc2)OCCO1` (stereo not given) and `Cc1ccc2c3c1O[C@H]1c4[nH]c5ccccc5c4C[C@@]4(O)[C@@H](C2)N(CC2CC2)CC[C@]314` cannot be ordered by TGI: over 10 µM for the first, 30.5 µM for the second.

`Nc1ccc(Cc2c(N)[nH]c(=O)[nH]c2=O)cc1` was tested, and the TGI was over 100 µM.

For `N#Cc1ccccc1CSc1ncnc2nc[nH]c12`, the GI50 was 83.3 µM.

system: PC-3 prostate; assay: NCI anticancer screen, dose series, 48 h

`CCOC(=O)Cn1c(=O)ccn(COCCO)c1=O` and `CCOC(=O)c1cc2c3ccn(Cc4ccccc4)c3c3c(C)[nH]oc3c2n1` cannot be ordered by TGI: over 100 µM for the first, over 100 µM for the second.

`CN(C)CCCN=c1c2ccccc2n(O)c2ccccc12` and `O=C1c2ccccc2C(=O)N1CCCCNOCCCN1C(=O)c2ccccc2C1=O` cannot be ordered by TGI: over 100 µM for the first, over 100 µM for the second.

`C=CCCC1(CC(Sc2ccccc2)P(=O)(c2ccccc2)c2ccccc2)OCCO1` (stereo not given) and `Cc1ccc2c3c1O[C@H]1c4[nH]c5ccccc5c4C[C@@]4(O)[C@@H](C2)N(CC2CC2)CC[C@]314` cannot be ordered by TGI: over 10 µM for the first, 24.9 µM for the second.

`Nc1ccc(Cc2c(N)[nH]c(=O)[nH]c2=O)cc1` was tested, and the TGI was over 100 µM.

system: MDA-MB-231 breast; assay: NCI anticancer screen, dose series, 48 h

`CCOC(=O)Cn1c(=O)ccn(COCCO)c1=O` and `CCOC(=O)c1cc2c3ccn(Cc4ccccc4)c3c3c(C)[nH]oc3c2n1` cannot be ordered by TGI: over 100 µM for the first, over 100 µM for the second.

`CN(C)CCCN=c1c2ccccc2n(O)c2ccccc12` and `O=C1c2ccccc2C(=O)N1CCCCNOCCCN1C(=O)c2ccccc2C1=O` cannot be ordered by TGI: over 100 µM for the first, over 100 µM for the second.

`C=CCCC1(CC(Sc2ccccc2)P(=O)(c2ccccc2)c2ccccc2)OCCO1` (stereo not given) and `Cc1ccc2c3c1O[C@H]1c4[nH]c5ccccc5c4C[C@@]4(O)[C@@H](C2)N(CC2CC2)CC[C@]314` cannot be ordered by TGI: over 10 µM for the first, 35.6 µM for the second.

Work on `Nc1ccc(Cc2c(N)[nH]c(=O)[nH]c2=O)cc1` yielded a TGI of over 100 µM.

With `N#Cc1ccccc1CSc1ncnc2nc[nH]c12` the GI50 was 51 µM.

system: TK-10 renal; assay: NCI anticancer screen, dose series, 48 h

`CCOC(=O)Cn1c(=O)ccn(COCCO)c1=O` and `CCOC(=O)c1cc2c3ccn(Cc4ccccc4)c3c3c(C)[nH]oc3c2n1` cannot be ordered by TGI: over 100 µM for the first, over 100 µM for the second.

`CN(C)CCCN=c1c2ccccc2n(O)c2ccccc12` and `O=C1c2ccccc2C(=O)N1CCCCNOCCCN1C(=O)c2ccccc2C1=O` cannot be ordered by TGI: over 100 µM for the first, over 100 µM for the second.

`C=CCCC1(CC(Sc2ccccc2)P(=O)(c2ccccc2)c2ccccc2)OCCO1` (stereo not given) and `Cc1ccc2c3c1O[C@H]1c4[nH]c5ccccc5c4C[C@@]4(O)[C@@H](C2)N(CC2CC2)CC[C@]314` cannot be ordered by TGI: over 10 µM for the first, 31.7 µM for the second.

system: SNB-75 CNS; assay: NCI anticancer screen, dose series, 48 h

`CCOC(=O)Cn1c(=O)ccn(COCCO)c1=O` and `CCOC(=O)c1cc2c3ccn(Cc4ccccc4)c3c3c(C)[nH]oc3c2n1` cannot be ordered by TGI: over 100 µM for the first, over 100 µM for the second.

`CN(C)CCCN=c1c2ccccc2n(O)c2ccccc12` and `O=C1c2ccccc2C(=O)N1CCCCNOCCCN1C(=O)c2ccccc2C1=O` cannot be ordered by TGI: over 100 µM for the first, over 100 µM for the second.

Molecule `N#Cc1ccccc1CSc1ncnc2nc[nH]c12` has a TGI of 67.1 µM.

`N#Cc1ccccc1CSc1ncnc2nc[nH]c12` was tested, and the GI50 was 9.8 µM.

system: IGROV1 ovarian; assay: NCI anticancer screen, dose series, 48 h

`CCOC(=O)Cn1c(=O)ccn(COCCO)c1=O` and `CCOC(=O)c1cc2c3ccn(Cc4ccccc4)c3c3c(C)[nH]oc3c2n1` cannot be ordered by TGI: over 100 µM for the first, over 100 µM for the second.

`CN(C)CCCN=c1c2ccccc2n(O)c2ccccc12` and `O=C1c2ccccc2C(=O)N1CCCCNOCCCN1C(=O)c2ccccc2C1=O` cannot be ordered by TGI: over 100 µM for the first, over 100 µM for the second.

`C=CCCC1(CC(Sc2ccccc2)P(=O)(c2ccccc2)c2ccccc2)OCCO1` (stereo not given) and `Cc1ccc2c3c1O[C@H]1c4[nH]c5ccccc5c4C[C@@]4(O)[C@@H](C2)N(CC2CC2)CC[C@]314` cannot be ordered by TGI: over 10 µM for the first, 32 µM for the second.

system: OVCAR-4 ovarian; assay: NCI anticancer screen, dose series, 48 h

`CCOC(=O)Cn1c(=O)ccn(COCCO)c1=O` and `CCOC(=O)c1cc2c3ccn(Cc4ccccc4)c3c3c(C)[nH]oc3c2n1` cannot be ordered by TGI: over 100 µM for the first, over 100 µM for the second.

`CN(C)CCCN=c1c2ccccc2n(O)c2ccccc12` and `O=C1c2ccccc2C(=O)N1CCCCNOCCCN1C(=O)c2ccccc2C1=O` cannot be ordered by TGI: over 100 µM for the first, over 100 µM for the second.

`C=CCCC1(CC(Sc2ccccc2)P(=O)(c2ccccc2)c2ccccc2)OCCO1` (stereo not given) and `Cc1ccc2c3c1O[C@H]1c4[nH]c5ccccc5c4C[C@@]4(O)[C@@H](C2)N(CC2CC2)CC[C@]314` cannot be ordered by TGI: over 10 µM for the first, 17.8 µM for the second.

Molecule `Nc1ccc(Cc2c(N)[nH]c(=O)[nH]c2=O)cc1` has a TGI of over 100 µM.

system: SW-620 colon; assay: NCI anticancer screen, dose series, 48 h

`CCOC(=O)Cn1c(=O)ccn(COCCO)c1=O` and `CCOC(=O)c1cc2c3ccn(Cc4ccccc4)c3c3c(C)[nH]oc3c2n1` cannot be ordered by TGI: over 100 µM for the first, over 100 µM for the second.

`CN(C)CCCN=c1c2ccccc2n(O)c2ccccc12` and `O=C1c2ccccc2C(=O)N1CCCCNOCCCN1C(=O)c2ccccc2C1=O` cannot be ordered by TGI: over 100 µM for the first, over 100 µM for the second.

`C=CCCC1(CC(Sc2ccccc2)P(=O)(c2ccccc2)c2ccccc2)OCCO1` (stereo not given) and `Cc1ccc2c3c1O[C@H]1c4[nH]c5ccccc5c4C[C@@]4(O)[C@@H](C2)N(CC2CC2)CC[C@]314` cannot be ordered by TGI: over 10 µM for the first, 25.4 µM for the second.

With `Nc1ccc(Cc2c(N)[nH]c(=O)[nH]c2=O)cc1` the TGI was over 100 µM.

system: UACC-257 melanoma; assay: NCI anticancer screen, dose series, 48 h

`CCOC(=O)Cn1c(=O)ccn(COCCO)c1=O` and `CCOC(=O)c1cc2c3ccn(Cc4ccccc4)c3c3c(C)[nH]oc3c2n1` cannot be ordered by TGI: over 100 µM for the first, over 100 µM for the second.

`CN(C)CCCN=c1c2ccccc2n(O)c2ccccc12` and `O=C1c2ccccc2C(=O)N1CCCCNOCCCN1C(=O)c2ccccc2C1=O` cannot be ordered by TGI: over 100 µM for the first, over 100 µM for the second.

`C=CCCC1(CC(Sc2ccccc2)P(=O)(c2ccccc2)c2ccccc2)OCCO1` (stereo not given) and `Cc1ccc2c3c1O[C@H]1c4[nH]c5ccccc5c4C[C@@]4(O)[C@@H](C2)N(CC2CC2)CC[C@]314` cannot be ordered by TGI: over 10 µM for the first, 32.8 µM for the second.

For `Nc1ccc(Cc2c(N)[nH]c(=O)[nH]c2=O)cc1`, the TGI was over 100 µM.

Work on `N#Cc1ccccc1CSc1ncnc2nc[nH]c12` yielded a GI50 of 44.5 µM.

system: MCF7 breast; assay: NCI anticancer screen, dose series, 48 h

`CCOC(=O)Cn1c(=O)ccn(COCCO)c1=O` gave a TGI of over 100 µM.
